How the values were obtained:
Assay type in all cases: in vivo, human
[1] = system: patients with gastroesophageal reflux symptoms; test: Clinical treatment of patients with gastroesophageal reflux symptoms; settings: 20 mg tablet daily;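 as to Evolution of symptom: one to three plus signs grade improvement from moderate to highly favorable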
Method: (§1) Some clinical examples are given below, which show the effects of treatment on patients suffering from gastroesophageal reflux or dyspepsia, treated by the oral administration of tenatoprazole.
Treatment consisted in the daily administration of a tablet containing 20 mg tenatoprazole.

[2] = system: patients with atypical symptoms of gastroesophageal reflux; test: Clinical treatment of patients with atypical symptoms of gastroesophageal reflux; parameters: Safety: key: +: moderate; ++: ranging from moderate to highly favorable; +++: highly favorable; settings: oral; as to Evolution of symptom: key: +: moderate; ++: ranging from moderate to highly favorable; +++: highly favorable
Source text: as §1

[3] = system: patients suffering from erosive and/or ulcerative type reflux esophagitis; test: Open-labeled studies in reflux esophagitis: improvement rating of subjective and objective symptoms; settings: 10 mg tablet orally once a day
Method: Two open-labeled studies have been conducted in order to evaluate the efficacy and safety of tenatoprazole for gastroesophageal reflux disease. 22 patients in the first study and 24 patients in the second study, of more than 20 years of age, suffering from erosive and/or ulcerative type reflux esophagitis (diagnosed by endoscopy), received tablets containing enteric-coated granules with 10 mg of tenatoprazole.
[…] […], or at the withdrawal from the study, the disease stages were evaluated according to the Savary and Miller classification and the treatment was stopped when healing was confirmed. The condition was evaluated as healed when disappearance of erosion was confirmed.

[4] = patient 26, asthma, link with GERD ++, 12 weeks
[5] = patient 27, dental caries, link with GERD +, 12 weeks
[6] = patient 29, noct. cough, link with GERD +++, 7 weeks
[7] = patient 31, pharyngitis, link with GERD +, 8 weeks
[8] = patient 33, asthma, link with GERD ++, 12 weeks
[9] = patient 34, dysphonia, link with GERD ++, 4 weeks
[10] = patient 34, pharyngitis, link with GERD ++, 8 weeks
[11] = patient 36, dysphonia, link with GERD ++, 5 weeks
[12] = patient 36, noct. cough, link with GERD ++, 8 weeks
[13] = patient 44, pharyngitis, link with GERD +, 4 weeks
[14] = patient 45, pseudo-angina, link with GERD ++, 8 weeks
[15] = patient 49, pseudo-angina, link with GERD ++, 12 weeks

## COc1ccc2[nH]c([S+]([O-])Cc3ncc(C)c(OC)c3C)nc2n1 (stereo not shown) [tenatoprazole, 5-methoxy-2-[[(4-methoxy-3,5-dimethyl-2-pyridyl)methyl]sulfinyl]imidazo[4,5-b]pyridine]
[1]; patients of Table 2
  cases in which treatment was perfectly tolerated: 12 out of 14
  evolution observed in symptoms, overall: generally very favorable
[1]; patient 25, heartburn, 12 weeks
  Evolution of symptom: +++
[1]; patient 28, nocturnal heartburn, 4 weeks
  Evolution of symptom: +++
[1]; patient 30, nocturnal heartburn, 8 weeks
  Evolution of symptom: +++
[1]; patient 34, heartburn, 8 weeks
  Evolution of symptom: +++
[1]; patient 35, nocturnal heartburn, 4 weeks
  Evolution of symptom: ++
[1]; patient 36, regurgitation, 8 weeks
  Evolution of symptom: +++
[1]; patient 38, heartburn, 8 weeks
  Evolution of symptom: +++
[1]; patient 38, nocturnal heartburn, 8 weeks
  Evolution of symptom: +++
[1]; patient 39, nocturnal heartburn, 4 weeks
  Evolution of symptom: +
[1]; patient 41, heartburn, 8 weeks
  Evolution of symptom: +++
[1]; patient 42, heartburn, 8 weeks
  Evolution of symptom: ++
[1]; patient 45, nocturnal heartburn, 8 weeks
  Evolution of symptom: +++
[1]; patient 47, nocturnal heartburn, 8 weeks
  Evolution of symptom: ++
[1]; patient 49, regurgitation, 8 weeks
  Evolution of symptom: ++
[2]; [4]
  Evolution of symptom: +++
  Safety: +++
[2]; [5]
  Evolution of symptom: 0
  Safety: ++
[2]; [6]
  Evolution of symptom: +++
  Safety: +++
[2]; [7]
  Evolution of symptom: +
  Safety: +++
[2]; [8]
  Evolution of symptom: ++
  Safety: +++
[2]; [9]
  Evolution of symptom: ++
  Safety: +++
[2]; [10]
  Evolution of symptom: ++
  Safety: +++
[2]; [11]
  Evolution of symptom: +++
  Safety: +++
[2]; [12]
  Evolution of symptom: +++
  Safety: ++
[2]; [13]
  Evolution of symptom: ++
  Safety: +++
[2]; [14]
  Evolution of symptom: +++
  Safety: +++
[2]; [15]
  Evolution of symptom: +++
  Safety: +++
[3]; 1st study, 1 week
  Improvement rating of symptoms, patients rated A markedly improved: 16
  Improvement rating of symptoms, patients rated B moderately improved: 6
  Improvement rating of symptoms, patients rated C slightly improved: 0
  Improvement rating of symptoms, patients rated D not changed: 3
  Improvement rating of symptoms, patients rated E aggravated: 0
[3]; 1st study, 2 weeks
  Improvement rating of symptoms, patients rated A markedly improved: 21
  Improvement rating of symptoms, patients rated B moderately improved: 1
  Improvement rating of symptoms, patients rated C slightly improved: 0
  Improvement rating of symptoms, patients rated D not changed: 1
  Improvement rating of symptoms, patients rated E aggravated: 0
[3]; 1st study, 4 weeks
  Improvement rating of symptoms, patients rated A markedly improved: 23
  Improvement rating of symptoms, patients rated B moderately improved: 0
  Improvement rating of symptoms, patients rated C slightly improved: 1
  Improvement rating of symptoms, patients rated D not changed: 0
  Improvement rating of symptoms, patients rated E aggravated: 0
[3]; 1st study, 6 weeks
  Improvement rating of symptoms, patients rated A markedly improved: 10
  Improvement rating of symptoms, patients rated B moderately improved: 0
  Improvement rating of symptoms, patients rated C slightly improved: 1
  Improvement rating of symptoms, patients rated D not changed: 0
  Improvement rating of symptoms, patients rated E aggravated: 0
[3]; 1st study, 8 weeks
  Improvement rating of symptoms, patients rated A markedly improved: 9
  Improvement rating of symptoms, patients rated B moderately improved: 0
  Improvement rating of symptoms, patients rated C slightly improved: 1
  Improvement rating of symptoms, patients rated D not changed: 0
  Improvement rating of symptoms, patients rated E aggravated: 0
[3]; 1st study, 10 weeks
  Improvement rating of symptoms, patients rated A markedly improved: 2
  Improvement rating of symptoms, patients rated B moderately improved: 0
  Improvement rating of symptoms, patients rated C slightly improved: 0
  Improvement rating of symptoms, patients rated D not changed: 0
  Improvement rating of symptoms, patients rated E aggravated: 0
[3]; 1st study, final
  Improvement rating of symptoms, patients rated A markedly improved: 21
  Improvement rating of symptoms, patients rated B moderately improved: 0
  Improvement rating of symptoms, patients rated C slightly improved: 1
  Improvement rating of symptoms, patients rated D not changed: 0
  Improvement rating of symptoms, patients rated E aggravated: 0
[3]; 2nd study, 1 week
  Improvement rating of symptoms, patients rated A markedly improved: 19
  Improvement rating of symptoms, patients rated B moderately improved: 2
  Improvement rating of symptoms, patients rated C slightly improved: 1
  Improvement rating of symptoms, patients rated D not changed: 1
  Improvement rating of symptoms, patients rated E aggravated: 0
[3]; 2nd study, 2 weeks
  Improvement rating of symptoms, patients rated A markedly improved: 21
  Improvement rating of symptoms, patients rated B moderately improved: 1
  Improvement rating of symptoms, patients rated C slightly improved: 1
  Improvement rating of symptoms, patients rated D not changed: 0
  Improvement rating of symptoms, patients rated E aggravated: 0
[3]; 2nd study, 4 weeks
  Improvement rating of symptoms, patients rated A markedly improved: 20
  Improvement rating of symptoms, patients rated B moderately improved: 1
  Improvement rating of symptoms, patients rated C slightly improved: 1
  Improvement rating of symptoms, patients rated D not changed: 0
  Improvement rating of symptoms, patients rated E aggravated: 0
[3]; 2nd study, 6 weeks
  Improvement rating of symptoms, patients rated A markedly improved: 10
  Improvement rating of symptoms, patients rated B moderately improved: 0
  Improvement rating of symptoms, patients rated C slightly improved: 1
  Improvement rating of symptoms, patients rated D not changed: 0
  Improvement rating of symptoms, patients rated E aggravated: 0
[3]; 2nd study, 8 weeks
  Improvement rating of symptoms, patients rated A markedly improved: 10
  Improvement rating of symptoms, patients rated B moderately improved: 1
  Improvement rating of symptoms, patients rated C slightly improved: 0
  Improvement rating of symptoms, patients rated D not changed: 0
  Improvement rating of symptoms, patients rated E aggravated: 0
[3]; 2nd study, 10 weeks
  Improvement rating of symptoms, patients rated A markedly improved: 0
  Improvement rating of symptoms, patients rated B moderately improved: 1
  Improvement rating of symptoms, patients rated C slightly improved: 0
  Improvement rating of symptoms, patients rated D not changed: 0
  Improvement rating of symptoms, patients rated E aggravated: 0
[3]; 2nd study, 12 weeks
  Improvement rating of symptoms, patients rated A markedly improved: 0
  Improvement rating of symptoms, patients rated B moderately improved: 1
  Improvement rating of symptoms, patients rated C slightly improved: 0
  Improvement rating of symptoms, patients rated D not changed: 0
  Improvement rating of symptoms, patients rated E aggravated: 0
[3]; 2nd study, final
  Improvement rating of symptoms, patients rated A markedly improved: 19
  Improvement rating of symptoms, patients rated B moderately improved: 2
  Improvement rating of symptoms, patients rated C slightly improved: 0
  Improvement rating of symptoms, patients rated D not changed: 0
  Improvement rating of symptoms, patients rated E aggravated: 0

— patent US20110152314A1, “USE OF TENATOPRAZOLE FOR THE TREATMENT OF GASTROESOPHAGEAL REFLUX DISEASE” (SIDEM PHARMA, priority 2002, published 2011)
